Results as given in patent US5428013A, “Differential diagnosis and treatment of the states of growth hormone insufficiency (or deficiency) with an alpha-2-adrenergic agonist and a growth hormone releasing peptide” (priority 1992, dated 1995).
Where no end group is shown, it is not given here.

Legend:
GH secretion [1] = assay: Provocative tests for GH secretion in short children (clonidine, propranolol plus exercise, insulinic hypoglycemia, placebo plus GHRH, clonidine plus GHRH); format: in vivo
Excerpt: Twenty-four children (17 boys and 7 girls) with stature below the third percentile (P3), participated in the study with informed consent (parent and child). Ages of the children ranged from 7 to 13.9 years. In all but seven of the children, weight was more than or equal to P3. […] Two children had received prophylactic cranial irradiation due to brain tumors, five and three years before the study. […] All children had been previously studied for their GH insufficiency. Studies included growth velocity, bone age, classical provocative tests for GH secretion (i.e. clonidine, insulin hypoglycemia and propranolol plus exercise), plasma somatomedin C (Sm C) (Insulin Growth Factor-I (IGF-I)) analysis, and analysis of the spontaneous pattern of nocturnal GH secretion.
Studies commenced at 09.00 h after an overnight fast and bed rest and thirty minutes after the insertion of a nonthrombogenic catheter for blood withdrawal in a forearm vein. The study consisted of administering clonidine (Catapresan, Boehringer Ingelheim, Spain) orally at 150 micrograms/m^2 at time 0, followed by administering GHRH (GRF 1-29, Serono, Spain) as an intravenous bolus at 1 microgram/kg at time 60 minutes. An additional control for short children consisted of administering a placebo at time 0, followed by administering GHRH at time 60 minutes. Blood samples for GH analysis (RIA, BioMerieux, France) were taken at 0 and 60 minutes and at 15 minute intervals for one hour following GHRH administration. The mean intra-assay coefficient of variation was 5.7, 3.2 and 4.3% at mean GH concentrations of 1.5, 10 and 22 micrograms/L respectively. To avoid interassay variations, all samples from a subject were run in the same assay.
To confirm the uniqueness of such combined clonidine plus GHRH test in the differentiation of GH-deficient states, the theoretical GH responses to this test in short children were calculated on the basis of the equation obtained from the multiple regression analysis relating chronological and bone age with the amplitude of GH peaks in normal children. […] Responses between the -20 to +20% range were considered to be normals, as they fitted between the standard deviation from the mean in the group of normal children.

[2] = Growth velocity of short children treated with GH; format: in vivo; details: three children treated with GH for 9 months; increased from 3 cm/yr
Excerpt: Twenty-four children (17 boys and 7 girls) with stature below the third percentile (P3), participated in the study with informed consent (parent and child). Ages of the children ranged from 7 to 13.9 years. In all but seven of the children, weight was more than or equal to P3. […] Two children had received prophylactic cranial irradiation due to brain tumors, five and three years before the study. Three children had been treated with GH for 9 months; their growth velocity increased during this therapy from 3 to 8 cm/yr. All children had been previously studied for their GH insufficiency. Studies included growth velocity, bone age, classical provocative tests for GH secretion (i.e. clonidine, insulin hypoglycemia and propranolol plus exercise), plasma somatomedin C (Sm C) (Insulin Growth Factor-I (IGF-I)) analysis, and analysis of the spontaneous pattern of nocturnal GH secretion. […] Mean (±SEM) plasma Sm C was 488±376 U/L. Mean (±SEM) growth velocity was 3.7±0.9 cm/yr.

GH secretion [3] = details: cited from earlier work
[4] = patient group 1, short children
[5] = patient group 2, short children
[6] = patient group 3, short children
[7] = patient group 4, short children
[8] = patient group 5, short children

| Molecule | Number of positive (+, >10 μg/L) GH responses (GH secretion [1]; [4]) | Number of positive (+, >10 μg/L) GH responses (GH secretion [1]; [5]) | Number of positive (+, >10 μg/L) GH responses (GH secretion [1]; [6]) | Number of positive (+, >10 μg/L) GH responses (GH secretion [1]; [7]) | Number of positive (+, >10 μg/L) GH responses (GH secretion [1]; [8]) | further results |
| --- | --- | --- | --- | --- | --- | --- |
| GHRH: growth hormone-releasing hormone, used as GRF 1-29 (Serono, Spain), intravenous bolus (YADAIFTNSYRKVLGQLSARKLLQDIMSR; ends and bridges not checked; UniProt P01286 32-60, looked up, fragment) | 2 | 3 | 3 | 3 | 3 | Number of patients with deficient GHRH-induced GH response (GH peak <10 μg/L) (GH secretion [1]; 24 short children, pretreatment with placebo): 9 patients; Number of negative (-, <10 μg/L) GH responses (GH secretion [1]; [4]): 4; Number of negative (-, <10 μg/L) GH responses (GH secretion [1]; [5]): 2; Mean GH peak response to GHRH (GH secretion [1]; short children, placebo at time 0, GHRH i.v. bolus at 60 minutes): 19.5 ± 15.7 µg/L |
| GH: exogenous growth hormone given to three children for 9 months |  |  |  |  |  | Growth velocity during GH therapy [2]: 8 cm/yr |
| Clc1cccc(Cl)c1NC1=NCCN1 [clonidine, 2-(2,6-dichloroanilino)-2-imidazoline] | 0 | 4 | 2 | 3 | 1 | Effect on GHRH-induced GH secretion (GH secretion [3]; normal subjects, short, normal children and adults (literature)): enhances the GH response to GHRH; Share of children appearing GH-deficient on the basis of a low GH response (<10 μg/L) to the provocative test (GH secretion [1]; 24 short children, earlier work-up): 50%; Number of negative (-, <10 μg/L) GH responses (GH secretion [1]; [6]): 2; Effect of pretreatment with clonidine on the GH response to GHRH (GH secretion [1]; patient group 5, malnourished children): did not significantly enhance the GH response to GHRH |
| CN(C)C(=O)Oc1ccc[n+](C)c1 [pyridostigmine] |  |  |  |  |  | Usefulness as treatment of short stature (GH secretion [3]; literature (Ghigo 1989)): does not represent a useful treatment of short stature |
